According to patent US20140228425A1, “INHIBITOR FOR CORNEAL EPITHELIAL CELL DEATH, INHIBITOR CHARACTERIZED BY COMBINING HYALURONIC ACID AND FLAVIN ADENINE DINUCLEOTIDE” (SANTEN PHARMACEUTICAL CO., LTD., priority 2011, published 2014):
Counter-ions that a name gives are not always drawn.

Columns and labels:
[1] = Patent Document 1; cited from earlier work
[2] = tested on: SV40 immortalized human corneal epithelial cells (HCE-T); assay: Pharmacological Test 2: treatment before UV-B irradiation (120 mJ/cm^2), cell death inhibition ratio; assay type: cell-based; conditions: for Cell death inhibition ratio: average N=3
Method: A test similar to Pharmacological test 1 was conducted with the irradiation condition of UV-B varied.
After conducting operations similar to those in Pharmacological test 1, the 10% FBS-containing DMEM/F-12 culture medium was replaced by PBS containing 0.05% (w/v) flavin adenine dinucleotide disodium salt, PBS containing 0.05% (w/v) sodium hyaluronate, PBS containing 0.05% (w/v) sodium hyaluronate and 0.05% (w/v) flavin adenine dinucleotide disodium salt, PBS containing 0.3% (w/v) sodium hyaluronate, PBS containing 0.3% (w/v) sodium hyaluronate and 0.05% (w/v) flavin adenine dinucleotide disodium salt, or PBS not containing a test substance (hereinafter, referred to as “0.05% FAD group”, “0.05% HA group”, “0.05% HA/0.05% FAD group”, “0.3% HA group”, “0.3% HA/0.05% FAD group” or “base group”, respectively). Then, corneal epithelial cells were irradiated with UV-B (120 mJ/cm^2) for about 2 minutes, and again operations similar to those in Pharmacological test 1 were conducted. Then, according to the expression 1, the viability was calculated, and further, according to the following expression 2, the cell death inhibition ratio of each group was calculated.
Cell death inhibition ratio (%)=Viability of each group−Viability of base group [Expression 2]

[3] = tested on: SV40 immortalized human corneal epithelial cells; assay: Pharmacological Test 3: treatment after UV-B irradiation (80 mJ/cm^2), viability of corneal epithelial cells; assay type: cell-based; conditions: treated 60 minutes after UV-B irradiation (80 mJ/cm^2, about 1 minute); 0.1% (w/v) sodium hyaluronate, 0.05% (w/v) flavin adenine dinucleotide disodium salt, or both; FIG. 2
Method: Whether or not the decline of the number of living cells by ultraviolet irradiation is inhibited when corneal epithelial cells are treated with the present agent after ultraviolet (UV-B) irradiation was evaluated.
SV40 immortalized human corneal epithelial cells were inoculated in a 96-well plate (1×10^4 cells/well), and cultured in a 10% FBS-containing DMEM/F-12 culture medium for a day. On the next day, corneal epithelial cells were irradiated with UV-B (80 mJ/cm^2) for about 1 minute. Then the 10% FBS-containing DMEM/F-12 culture medium was replaced by PBS containing 0.1% (w/v) sodium hyaluronate, PBS containing 0.05% (w/v) flavin adenine dinucleotide disodium salt, PBS containing 0.1% (w/v) sodium hyaluronate and 0.05% (w/v) flavin adenine dinucleotide disodium salt, or PBS not containing a test substance, and then cultured at 37° C. for 60 minutes (hereinafter, referred to as “0.1% HA group”, “0.05% FAD group”, “0.1% HA/0.05% FAD group” or “base group”, respectively). Then, after replacing the culture medium of each group by a 10% FBS-containing DMEM/F-12 culture medium, the cells were cultured at 37° C. for 24 hours, and then the number of living cells was determined by using Cell Titer 96 (registered trade name) AQueous One Solution Cell Proliferation Assay, and the viability was calculated according to the following expression 3. […]

[4] = tested on: SV40 immortalized human corneal epithelial cells; assay: Pharmacological Test 4: treatment before exposure to dryness, viability of corneal epithelial cells; assay type: cell-based; conditions: treated 60 minutes before exposure to dryness for 15 minutes; 0.1% HA, 0.05% FAD or 0.1% HA/0.05% FAD in D-MEM/F12; FIG. 3
Method: Whether or not the decline of the number of living cells by dryness is inhibited when corneal epithelial cells are treated with the present agent before exposure to dryness was evaluated.
SV40 immortalized human corneal epithelial cells were inoculated in a 96-well plate (1×10^4 cells/well), and cultured in a 10% FBS-containing DMEM/F-12 culture medium for a day. On the next day, the culture medium was replaced by a D-MEM/F12 culture medium containing 0.1% (w/v) sodium hyaluronate, a D-MEM/F12 culture medium containing 0.05% (w/v) flavin adenine dinucleotide disodium salt, a D-MEM/F12 culture medium containing 0.1% (w/v) sodium hyaluronate and 0.05% (w/v) flavin adenine dinucleotide disodium salt, or a D-MEM/F12 culture medium not containing a test substance, and then cells were cultured at 37° C. for 60 minutes (hereinafter, referred to as “0.1% HA group”, “0.05% FAD group”, “0.1% HA/0.05% FAD group” or “base group”, respectively). After culturing, the culture medium of each group was removed, and then cells were exposed to dryness for 15 minutes. After exposure to dryness, the number of living cells was determined by using Cell Titer 96 (registered trade name) AQueous One Solution Cell Proliferation Assay, and the viability was calculated according to the following expression 4. […]

corneal epithelial cells [5] = conditions: Non-Patent Document 1; cited from earlier work
corneal epithelial cells [6] = conditions: Non-Patent Document 3; cited from earlier work
[7] = single substance 0.05% (w/v) in PBS before UV-B (120 mJ/cm^2, about 2 minutes)

| Compound | Cell death inhibition ratio [2, 7] | inhibition of corneal epithelial cell death (in words) [3] | action of inhibiting corneal epithelial cell death (in words) [4] | other results |
| --- | --- | --- | --- | --- |
| Cc1cc2nc3c(=O)[nH]c(=O)nc-3n(C[C@H](O)[C@H](O)[C@H](O)COP(=O)(O)OP(=O)(O)OC[C@H]3O[C@@H](n4cnc5c(N)ncnc54)C(O)C3O)c2cc1C (stereo partly drawn) [FAD or the like, flavin adenine dinucleotide (FAD) or a salt thereof] |  |  |  | lacrimal secretagogue action [1]: has a lacrimal secretagogue action |
| Cc1cc2nc3c(=O)[nH]c(=O)nc-3n(C[C@H](O)[C@H](O)[C@H](O)COP(=O)([O-])OP(=O)([O-])OC[C@H]3O[C@@H](n4cnc5c(N)ncnc54)[C@H](O)[C@@H]3O)c2cc1C.[Na+].[Na+] [FAD, flavin adenine dinucleotide disodium salt] | 48.78% | little observed | the action was not observed |  |
| sodium hyaluronate [HA] | −0.17% | little observed | an action of inhibiting corneal epithelial cell death was observed | Cell death inhibition ratio ([2]; single substance 0.3% (w/v) in PBS before UV-B (120 mJ/cm^2, about 2 minutes)): 4.17%; inhibition of corneal epithelial cell death by UV-B irradiation (in words) ([2]; treatment before UV-B irradiation (120 mJ/cm^2, about 2 minutes)): little inhibit |
| hyaluronic acid or a salt thereof [hyaluronic acid or the like] |  |  |  | Caspase-3/7 activation by UV-B irradiation (corneal epithelial cells [5]): inhibits; increase in production of active oxygen by corneal epithelial cells by UV-B irradiation (corneal epithelial cells [5]): inhibits; cell death of corneal epithelial cells induced by dryness (corneal epithelial cells [6]): does not inhibit |
